Measured values as given in patent EP1068184B1, “N-ARYLOXYETHYLAMINE DERIVATIVES FOR THE TREATMENT OF DEPRESSION” (Wyeth, priority 1998, dated 1999).

Experiments:
[1] = biological target: T1, human 5-HT1A receptor subtype (Homo sapiens, UniProt P08908); experiment: 5-HT1A receptor binding assay with [3H]8-OH-DPAT on membranes of 5-HT1A.CHO cells; conditions: [3H]8-OH-DPAT 1.5 nM, CHO cell membranes
T1 construct: expressed in transfected cells
T1 sequence (P08908 1-422): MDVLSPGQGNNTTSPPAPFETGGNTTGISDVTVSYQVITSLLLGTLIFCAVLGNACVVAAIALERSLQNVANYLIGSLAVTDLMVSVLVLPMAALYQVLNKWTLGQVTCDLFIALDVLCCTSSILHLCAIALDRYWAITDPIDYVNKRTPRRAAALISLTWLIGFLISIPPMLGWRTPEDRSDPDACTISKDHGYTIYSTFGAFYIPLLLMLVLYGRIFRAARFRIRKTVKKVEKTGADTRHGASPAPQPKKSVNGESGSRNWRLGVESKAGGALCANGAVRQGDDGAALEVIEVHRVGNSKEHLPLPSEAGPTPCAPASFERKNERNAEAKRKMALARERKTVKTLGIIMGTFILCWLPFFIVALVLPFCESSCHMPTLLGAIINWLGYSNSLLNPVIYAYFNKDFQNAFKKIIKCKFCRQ
Experimental: (§1) The PCR cloning of the human 5-HT1A receptor subtype from a human genomic library has been described previously Chanda et al., Mol. Pharmacol., 43:516 (1993). A stable Chinese hamster ovary cell line expressing the human 5-HT1A receptor subtype (5-HT1A.CHO cells) was employed throughout this study. Cells were maintained in DMEM supplemented with 10% foetal calf serum, non-essential amino acids and penicillin/ streptomycin.
Cells were grown to 95-100% confluency as a monolayer before membranes were harvested for binding studies. Cells were gently scraped from the culture plates, transferred to centrifuge tubes, and washed twice by centrifugation (2000 rpm for 10 min., 4°C) in buffer (50 mM Tris; pH 7.5). The resulting pellets were aliquoted and placed at -80°C. On the day of assay, the cells were thawed on ice, and resuspended in buffer. Studies were conducted using [^3H]8-OH-DPAT as the radioligand. The binding assay was performed in 96 well microtiter plates in a final total volume of 250 µL of buffer. Competition experiments were performed by using 7 concentrations of unlabelled drug and a final ligand concentration of 1.5 nM . Non-specific binding was determined in the presence of 10 µM 5HT. Saturation analysis was conducted by using [^3H]8-OH-DPAT at concentrations ranging from 0.3-30 nM. Following a 30 minute incubation at room temperature, the reaction was terminated by the addition of ice cold buffer and rapid filtration using a M-96 Brandel Cell Harvester (Gaithersburg, MD) through a GF/B filter presoaked for 30 minutes in 0.5% polyethyleneimine.

5-HT1A cloned receptor = biological target: T2, 5-HT1A cloned receptor (Homo sapiens, UniProt P08908); experiment: [35S]-GTPγS binding assay on 5-HT1A cloned receptor membrane fragments; assay type: biochemical; conditions: maximum agonist response defined by excess 8-OH-DPAT
T2 construct: expressed in transfected cells
T2 sequence (P08908 1-422): T1 sequence (P08908 1-422)
Experimental: The [^35S]-GTPγS binding assay was similar to that used by Lazareno and Birdsall, Br. J. Pharmacol. 109:1120 (1993). Briefly, 5-HT1A cloned receptor membrane fragments (as used for 5-HT1A receptor binding assays) were stored at -70 °C until needed. When needed, membranes were rapidly thawed, centrifuged at 40,000 x g for 10 minutes and resuspended at 4 °C for 10 minutes in assay buffer (25 mM HEPES, 3 mM MgCl2, 100 mM NaCI, 1 mM EDTA, 10 uM GDP, […] DTT, pH 8.0). These membranes were then incubated for 30 min at 30 °C with [^35S]GTPgS (1 nM) in the presence of vehicle, test compound (one to eight concentrations), or excess 8-OH-DPAT to define maximum agonist response. All reactions are terminated by the addition of ice cold Tris buffer followed by rapid filtration using a Tom Tech® filtration device to separate bound from free [^35S]GTPgS. Agonists produce an increase in the amount of [^35S]GTPgS bound whereas antagonists produce no increase in binding. Bound radioactivity was counted and analyzed as above.

serotonin transporter = biological target: T3, serotonin transporter (Rattus norvegicus, UniProt P31652); experiment: serotonin transporter affinity, 3H-paroxetine binding to frontal cortical membranes; design: species or system male Sprague-Dawley rats; conditions: 3H-paroxetine 0.1 nM, rat frontal cortical membranes; read-out: ST (Ki)
T3 construct: frontal cortical membranes prepared from male Sprague-Dawley rats; from tissue; host or cells: rat frontal cortex membranes
T3 sequence (P31652 whole entry): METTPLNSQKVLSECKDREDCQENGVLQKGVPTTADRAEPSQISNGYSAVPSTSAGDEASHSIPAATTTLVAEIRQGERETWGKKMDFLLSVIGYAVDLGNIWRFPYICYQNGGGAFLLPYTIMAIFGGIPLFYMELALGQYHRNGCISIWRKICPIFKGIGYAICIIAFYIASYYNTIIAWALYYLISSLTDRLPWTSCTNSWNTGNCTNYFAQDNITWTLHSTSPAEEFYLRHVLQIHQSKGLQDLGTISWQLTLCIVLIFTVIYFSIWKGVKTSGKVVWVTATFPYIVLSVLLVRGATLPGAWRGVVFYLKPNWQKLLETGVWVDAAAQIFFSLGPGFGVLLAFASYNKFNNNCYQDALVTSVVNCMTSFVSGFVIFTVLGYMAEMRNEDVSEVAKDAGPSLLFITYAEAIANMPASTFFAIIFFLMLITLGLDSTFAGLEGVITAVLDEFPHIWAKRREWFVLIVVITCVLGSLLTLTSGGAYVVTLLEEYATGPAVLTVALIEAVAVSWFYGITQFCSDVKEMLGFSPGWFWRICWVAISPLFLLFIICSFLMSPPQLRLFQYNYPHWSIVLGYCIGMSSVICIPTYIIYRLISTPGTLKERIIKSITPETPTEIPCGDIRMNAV
Experimental: Briefly, frontal cortical membranes prepared from male Sprague-Dawley rats were incubated with ^3H-paroxetine (0.1 nM) for 60 min at 25°C. All tubes also contained either vehicle, test compound (one to eight concentrations), or a saturating concentration of fluoxetine (10 µM) to define specific binding. All reactions are terminated by the addition of ice cold Tris buffer followed by rapid filtration using a Tom Tech filtration device to separate bound from free ^3H-paroxetine.

[2] = biological target: T1, human 5-HT1A receptor subtype; experiment: cAMP formation in forskolin-treated cells (cAMP SPA assay); assay type: cell-based; conditions: forskolin 1 uM, 10 min at 37°C
Experimental: as §1
The following assays were performed by incubating the cells with DMEM containing 25 mM HEPES, 5 mM theophylline and 10 µM pargyline for a period of 20 minutes at 37°C. Functional activity was assessed by treating the cells with forskolin (1 uM final concentration) followed immediately by test compound (6 concentrations) for an additional 10 min at 37°C. In separate experiments, 6 concentrations of antagonist were preincubated for 20 min prior to the addition of 10 nM 8-OH-DPAT and forskolin. The reaction was terminated by removal of the media and addition of 0.5 ml ice cold assay buffer. Plates were stored at -20°C prior to assessment of cAMP formation by a cAMP SPA assay (Amersham).

COc1ccc(F)cc1OCCN[C@H]1CC[C@H](c2c[nH]c3cc(F)ccc32)CC1 [Example 2b, [(1,4-trans)-4-(6-Fluoro-1H-indol-3-yl)-cyclohexyl]-[2-(5-fluoro-2-methoxy-phenoxy)-ethyl]-amine]
Ki [1]: 47.8 nM
Emax (5-HT1A cloned receptor): 0%
Ki (serotonin transporter): 0.42 nM
Emax [2]: 0%

Fc1ccc2[nH]cc([C@H]3CC[C@H](NCCOc4cccc5[nH]ccc45)CC3)c2c1 [Example 3b]
Ki [1]: 1.08 nM
Emax (5-HT1A cloned receptor): 62%
Ki (serotonin transporter): 2.5 nM
Emax [2]: 90%

Fc1cc2c(c(OCCN[C@H]3CC[C@H](c4c[nH]c5ccc(F)cc54)CC3)c1)OCCC2 [Example 5b, [2-(6-Fluoro-chroman-8-yloxy)-ethyl]-[(1,4-trans)-4-(5-fluoro-1H -indol-3-yl)-cyclohexyl]-amine]
Ki [1]: 19.4 nM
Emax (5-HT1A cloned receptor): 22%
Ki (serotonin transporter): 1.52 nM
Emax [2]: 0%

N#Cc1ccc2[nH]cc([C@H]3CC[C@H](NCCOc4cc(F)cc5c4OCCC5)CC3)c2c1 [Example 5f, 3-{(1,4-trans)-4-[2-(6-Fluoro-chroman-8-yloxy)-ethylamino]-cyclohexyl}-1H-indole-5-carbonitrile]
Ki [1]: 10.1 nM
Emax (5-HT1A cloned receptor): 30%
Ki (serotonin transporter): 2.6 nM
Emax [2]: 0%

Cc1nc2c(OCCN[C@H]3CC[C@H](c4c[nH]c5ccc(F)cc54)CC3)cc(Cl)cc2[nH]1 [Example 8b, [2-(6-Chloro-2-methyl-1H-benzoimidazol-4-yloxy)-ethyl]-[(1,4-trans)-4-(5-fluoro-1H-indol-3-yl)-cyclohexyl]-amine]
Ki [1]: 18.9 nM
Ki (serotonin transporter): 0.52 nM
Emax [2]: 0%
